Results published in US20040034006A1, “Method of inactivating viral particles in a blood product” (priority 2000, published 2004).
Values joined by “and” are separate entries in the source; they are usually repeats but may differ in a detail not shown here. Equal values may be shown once.

Experiments:
P. aeruginosa = experiment: photodynamic inactivation of bacteria with varying amounts of light; format: cell-based; conditions: 25 uM; dependent on amount of light (kJ/m^2); drops from 100%; FIG. 5
S. aureus = experiment: as above; format: cell-based; conditions: 25 uM; dependent on amount of light (kJ/m^2); drops from 100%; FIG. 5
red blood cells = experiment: in vivo survival of 51Cr-labeled RBC photodynamically treated and re-infused; conditions: one value per monkey (BB26, CO33)

## C[n+]1ccc(-c2c3nc(c(-c4cc[n+](C)cc4)c4ccc([nH]4)c(-c4cc[n+](C)cc4)c4nc(c(-c5ccccc5)c5ccc2[nH]5)C=C4)C=C3)cc1.[Cl-].[Cl-].[Cl-] [Sylsens, mono-phenyl-tri-(N-methyl-4-pyridyl)-porphyrin chloride]
P. aeruginosa
  inactivation of bacteria, percentage remaining: ≤ 0.001%
S. aureus
  inactivation of bacteria, percentage remaining: ≤ 0.001%
Red blood cells; Treated I: re-infused immediately after treatment
  recovery (%) of red blood cells 24 h after re-infusion: 75% and 102%
Red blood cells; Treated II: re-infused after 5 weeks of storage after treatment
  recovery (%) of red blood cells 24 h after re-infusion: 71% and 72%
